# According to patent publication US20090143423A1, “SOLID DISPERSION PRODUCT CONTAINING N-ARYL UREA-BASED COMPOUND” (ABBOTT GMBH & CO. KG, priority 2007, published 2009):
# Assays:
# [1] = Plasma concentration following multiple oral dosing in rat; assay type: in vivo, Sprague-Dawley rats; settings: for AUC / Cmax / Tmax: mean; for half-life: harmonic mean
# Experimental: A study was conducted to explore the ABT-102 plasma concentrations following multiple oral dosing in rat. In this study, a 10, 30 or 100 mg/kg/day oral dose was administered once daily for eight consecutive days. The compound was prepared as a suspension of the spray dried material in water at concentrations appropriate for a 20 ml/kg/day dose volume in each treatment group. The study was conducted in Sprague-Dawley rats (3 male, 3 female per dose group). Animals were permitted free access to food and water throughout the study. Plasma concentrations of parent drug were determined on the first (Day 1) and last (Day 8) of dosing.
# in vivo = settings: rat, po, 100 mg/kg
# Experimental: A study was conducted to evaluate effect of aging on the ABT-102 bioavailability obtained from suspensions of the spray dried material. Suspensions were prepared by stirring in water for 15 minutes at room temperature (5 mg/ml concentration). The suspensions were then stored refrigerated until dosing. Suspensions aged for 1, 4 and 7 days were compared to a suspension freshly prepared on the morning of dosing. Each of the aged suspension was evaluated in a group of three rats at a dose of 100 mg/kg (20 ml/kg). All four test formulations were evaluated in the same study. Plasma concentrations of parent drug were determined by HPLC-MS/MS.
# [2] = Previously conducted human pharmacokinetics of ABT-102; assay type: in vivo; settings: lipid-liquid formulation
# Description: However, it is anticipated that the current spray dried formulation of the invention also achieves similar pharmacokinetic profile in humans.
# [3] = 10 mg/kg/day oral, Day 1, aqueous suspension of spray-dried dispersion of Example 4 (part B)
# [4] = 10 mg/kg/day oral, Day 8, aqueous suspension of spray-dried dispersion of Example 4 (part B)
# [5] = 30 mg/kg/day oral, Day 1, aqueous suspension of spray-dried dispersion of Example 4 (part B)
# [6] = 30 mg/kg/day oral, Day 8, aqueous suspension of spray-dried dispersion of Example 4 (part B)
# [7] = 100 mg/kg/day oral, Day 1, aqueous suspension of spray-dried dispersion of Example 4 (part B)
# [8] = 100 mg/kg/day oral, Day 8, aqueous suspension of spray-dried dispersion of Example 4 (part B)
# [9] = both sexes, Sprague-Dawley, plasma, po, 10 mg/kg/day, 10 mg/kg/day oral, Day 1, aqueous suspension of spray-dried dispersion of Example 4 (part B)
# [10] = both sexes, Sprague-Dawley, plasma, po, 10 mg/kg/day, 10 mg/kg/day oral, Day 8, aqueous suspension of spray-dried dispersion of Example 4 (part B)
# [11] = both sexes, Sprague-Dawley, plasma, po, 30 mg/kg/day, 30 mg/kg/day oral, Day 1, aqueous suspension of spray-dried dispersion of Example 4 (part B)
# [12] = both sexes, Sprague-Dawley, plasma, po, 30 mg/kg/day, 30 mg/kg/day oral, Day 8, aqueous suspension of spray-dried dispersion of Example 4 (part B)
# [13] = both sexes, Sprague-Dawley, plasma, po, 100 mg/kg/day, 100 mg/kg/day oral, Day 1, aqueous suspension of spray-dried dispersion of Example 4 (part B)
# [14] = both sexes, Sprague-Dawley, plasma, po, 100 mg/kg/day, 100 mg/kg/day oral, Day 8, aqueous suspension of spray-dried dispersion of Example 4 (part B)
structure (smiles),measurement,setting,value
"CC(C)(C)c1ccc2c(c1)CCC2NC(=O)Nc1cccc2[nH]ncc12 (stereo in doubt) [ABT-102, 1-((R)-5-tert-butyl-indan-1-yl)-3-(1H-indazol-4-yl)-urea]",AUC/D,[1]; [3],0.918 μg · hr/mL per mg/kg
same,Cmax/D,[1]; [3],0.073 μg/mL per mg/kg
same,AUC,"[1]; 10 mg/kg/day oral, Day 1, aqueous suspension of spray-dried dispersion of Example 4 (part B), 10 mg/kg/day",9180 ng·h/mL
same,AUC/D,[1]; [4],0.725 μg · hr/mL per mg/kg
same,Cmax/D,[1]; [4],0.060 μg/mL per mg/kg
same,AUC,"[1]; 10 mg/kg/day oral, Day 8, aqueous suspension of spray-dried dispersion of Example 4 (part B), 10 mg/kg/day",7250 ng·h/mL
same,AUC/D,[1]; [5],0.741 μg · hr/mL per mg/kg
same,Cmax/D,[1]; [5],0.046 μg/mL per mg/kg
same,AUC,"[1]; 30 mg/kg/day oral, Day 1, aqueous suspension of spray-dried dispersion of Example 4 (part B), 30 mg/kg/day",22220 ng·h/mL
same,AUC/D,[1]; [6],0.498 μg · hr/mL per mg/kg
same,Cmax/D,[1]; [6],0.044 μg/mL per mg/kg
same,AUC,"[1]; 30 mg/kg/day oral, Day 8, aqueous suspension of spray-dried dispersion of Example 4 (part B), 30 mg/kg/day",14950 ng·h/mL
same,AUC/D,[1]; [7],0.326 μg · hr/mL per mg/kg
same,Cmax/D,[1]; [7],0.021 μg/mL per mg/kg
same,AUC,"[1]; 100 mg/kg/day oral, Day 1, aqueous suspension of spray-dried dispersion of Example 4 (part B), 100 mg/kg/day",32610 ng·h/mL
same,AUC/D,[1]; [8],0.362 μg · hr/mL per mg/kg
same,Cmax/D,[1]; [8],0.026 μg/mL per mg/kg
same,AUC,"[1]; 100 mg/kg/day oral, Day 8, aqueous suspension of spray-dried dispersion of Example 4 (part B), 100 mg/kg/day",36180 ng·h/mL
same,half-life,[1]; [9],5.9 h
same,Cmax,[1]; [9],730 ng/mL
same,Tmax,[1]; [9],2.3 h
same,AUC,"[1]; both sexes, Sprague-Dawley, plasma, po, 10 mg/kg/day, 10 mg/kg/day oral, Day 1, aqueous suspension of spray-dried dispersion of Example 4 (part B), read-out: AUC",9200 ng·h/mL
same,half-life,[1]; [10],5.4 h
same,Cmax,[1]; [10],600 ng/mL
same,Tmax,[1]; [10],3.3 h
same,AUC,"[1]; both sexes, Sprague-Dawley, plasma, po, 10 mg/kg/day, 10 mg/kg/day oral, Day 8, aqueous suspension of spray-dried dispersion of Example 4 (part B), read-out: AUC",7300 ng·h/mL
same,half-life,[1]; [11],7.8 h
same,Cmax,[1]; [11],1390 ng/mL
same,Tmax,[1]; [11],3 h
same,AUC,"[1]; both sexes, Sprague-Dawley, plasma, po, 30 mg/kg/day, 30 mg/kg/day oral, Day 1, aqueous suspension of spray-dried dispersion of Example 4 (part B), read-out: AUC",22200 ng·h/mL
same,half-life,[1]; [12],5.3 h
same,Cmax,[1]; [12],1320 ng/mL
same,Tmax,[1]; [12],3.3 h
same,AUC,"[1]; both sexes, Sprague-Dawley, plasma, po, 30 mg/kg/day, 30 mg/kg/day oral, Day 8, aqueous suspension of spray-dried dispersion of Example 4 (part B), read-out: AUC",15000 ng·h/mL
same,half-life,[1]; [13],6.3 h
same,Cmax,[1]; [13],2130 ng/mL
same,Tmax,[1]; [13],5 h
same,AUC,"[1]; both sexes, Sprague-Dawley, plasma, po, 100 mg/kg/day, 100 mg/kg/day oral, Day 1, aqueous suspension of spray-dried dispersion of Example 4 (part B), read-out: AUC",32600 ng·h/mL
same,half-life,[1]; [14],5.6 h
same,Cmax,[1]; [14],2610 ng/mL
same,Tmax,[1]; [14],4.5 h
same,AUC,"[1]; both sexes, Sprague-Dawley, plasma, po, 100 mg/kg/day, 100 mg/kg/day oral, Day 8, aqueous suspension of spray-dried dispersion of Example 4 (part B), read-out: AUC",36200 ng·h/mL
same,AUC,in vivo; AUC,12400 ng·h/mL
same,Cmax,in vivo; Cmax,1160 ng/mL
same,Tmax,in vivo; Tmax,4.3 h
same,half-life,in vivo; t1/2,4.4 h
same,pharmacokinetics (Cmax and AUC) versus dose,[2],dose proportional exposures
